# Source: patent EP0442663A1, “Improvements in chemical compounds” (priority 1990, dated 1991)
# “And” between values parts separate entries of the source, which are not always exact repeats. Equal entries are not always repeated.
# Tests used:
# [1] = tested on: HIV-1 (HTLV-IIIB); assay: microbe, parasite or virus in culture; assay type: cell-based; settings: for ED50: antiviral activity, MT-4 cells challenged with HIV-1 (HTLV-IIIB) at 100 CCID50, 5 days
# Description: (§1) The compounds of the invention were tested in a screen by the MTT method (J.Virol. Methods […]: 309-321 [1988]). MT-4 cells (2.5 x 10⁴ / well) were challenged with HIV-1 (HTLV-IIIB) or HIV-2 (LAV-2 ROD) at a concentration of 100 CCID₅₀ and incubated in the presence of various concentrations of the test compounds, which were added immediately after challenge with the virus. After 5 days culture at 37°C in a CO₂ incubator, the number of viable cells was assessed by the MTT (tetrazolium) method. Antiviral activity and cytotoxicity of the compounds are expressed in the table below as ED₅₀ (ug/ml) and CD₅₀ (ug/ml), respectively. The potential therapeutic usefulness was assessed by calculating a Selectivity Index (SI) corresponding to the ratio of CD₅₀ to ED₅₀. A control test was performed using the known anti-HIV treatment AZT, and a comparison compound HPA-23 was also run through the screen as detailed below. In the table below, the compounds screened were […]
# [2] = Cytotoxicity by MTT method; assay type: cell-based; settings: human, MT-4 cells, 5 days, read-out: CD50
# Description: as §1
# [3] = tested on: MT-4 cells; assay: Cytotoxicity by MTT method; assay type: cell-based; settings: 5 days
# Description: as §1
# [4] = tested on: HIV-2 (LAV-2 ROD); assay: MTT method anti-HIV screen in MT-4 cells, HIV-2 challenge; assay type: cell-based; settings: antiviral activity, MT-4 cells challenged with HIV-2 (LAV-2 ROD) at 100 CCID50, 5 days
# Description: as §1
# [5] = tested on: herpes virus; settings: from JP 64-38,022; cited from earlier work
# [6] = tested on: HIV; settings: reported in Chemical and Engineering News, December 1986; cited from earlier work
# [7] = in vivo; cited from earlier work
# [8] = value printed in the HIV-1 line, 7200 min
# [9] = value printed in the HIV-2 line, 7200 min
# [10] = value printed in the HIV-1 line
# [11] = value printed in the HIV-2 line
Compound,ED50 [1] [µg/mL],ED50 [4] [µg/mL],"CD50 [3, 10] [µg/mL]","CD50 [3, 11] [µg/mL]",further results
"Cc1cn([C@H]2C[C@H](N=[N+]=[N-])[C@@H](CO)O2)c(=O)[nH]c1=O [AZT, azidothymidione, reference compound]",–,–,–,–,"EC50 ([1]; Human immunodeficiency virus 1, IIIB, MT4, 120 h, read-out: ED50): < 0.008 µg/mL; SI ([1]; Selectivity Index, ratio of CD50 to ED50, HIV-1, 7200 min): >125; CC50 at 120 h [2]: > 1 µg/mL"
(NH₄)₁₂[H₂P₂W₁₂O₄₈].16H₂O [Example 7],–,–,–,–,"CD50 [3, 8]: >500.0 µg/mL and 304.0 µg/mL; CD50 [3, 9]: 346.0 µg/mL and 286.0 µg/mL"
"(NH₄)₁₇H[NaSb₉W₂₁O₈₆] [HPA 23, reference compound]",2.8,>4,7.4,2.4,–
K9Li[P2W17O62] [E],2.92,7.28,502.9,429.7,–
K10[P2W18Co4(H2O)2O68],1.47,12.26,84.8,81.6,–
K10[P2W18Zn4(H2O)2O68] [B],0.71,18.03,466.3,441.9,–
K12[H2P2W12O48] [A],0.089,0.153,721.0,675.9,–
K₅BW₁₂O₄₀,–,–,–,–,activity against herpes virus [5]: have activity against herpes virus
K₇PW₁₀Ti₂O₄₀,–,–,–,–,activity against herpes virus [5]: have activity against herpes virus
Na7[PrW10O35] [C],1.86,2.70,761.8,221.7,–
Na12[P4W14O58] [F],4.82,13.26,655.8,682.8,–
Reduced form of K₆[P₂W₁₂Mo₆O₆₂] [Example 12],–,–,–,–,"ED50 ([1]; 7200 min): 4.1 µg/mL and 5.8 µg/mL; ED50 ([4]; 7200 min): 1.8 µg/mL and 1.4 µg/mL; CD50 [3, 8]: 234.0 µg/mL and 300.0 µg/mL; CD50 [3, 9]: 315.0 µg/mL and 306.0 µg/mL"
"silicotungstate acid, H₄SiW₁₂O₄₀",–,–,–,–,activity against HIV [6]: has activity against HIV; toxicity in higher animals [7]: abandoned because of its toxicity in higher animals
